Values of other authors as cited in patent US12090135B2, “Neutral pH compositions of docetaxel and human serum albumin” (Zhuhai Beihai Biotech Co., Ltd., priority 2016, dated 2024).
Entries after “also recorded” stand apart in the source; their conditions may differ.

Columns and labels:
[1] = test system: microtubule depolymerization

in vitro binding to plasma proteins (plasma proteins; in three cancer patients): approximately 97%
protein bound (plasma proteins; in vitro studies, mainly to al-acid glycoprotein, albumin, and lipoproteins): about 94%
Structure (SMILES): CC(=O)O[C@@]12CO[C@@H]1C[C@H](O)[C@@]1(C)C(=O)[C@H](O)C3=C(C)[C@@H](OC(=O)[C@H](O)[C@@H](NC(=O)OC(C)(C)C)c4ccccc4)C[C@@](O)([C@@H](OC(=O)c4ccccc4)[C@H]21)C3(C)C [Docetaxel]
Water solubility: practically insoluble in water; also recorded: very poor water solubility
Potency in inhibiting microtubule depolymerization relative to paclitaxel [1]: about twice as potent as paclitaxel
